US20070270436A1, “NOVEL AMINO- AND IMINO-ALKYLPIPERAZINES” (Recordati Ireland Limited, priority 2006, published 2007)
Like-named read-outs stand apart in the source and are kept apart here.

What was measured:
[1] = biological target: T1, human 5HT1A-serotonergic receptor (Homo sapiens, UniProt P08908); assay: Radioligand binding to recombinant 5-HT1A receptor ([3H]8-OH-DPAT, HeLa cell membranes); conditions: 1 nM [3H]8-OH-DPAT; Ki from IC50 by the Cheng equation; read-out: Ki (nM), binding affinity for 5HT1A receptor
T1 construct: expressed in transfected cells; host or cells: HeLa (human), stably transfected; membranes
T1 sequence (P08908 1-422): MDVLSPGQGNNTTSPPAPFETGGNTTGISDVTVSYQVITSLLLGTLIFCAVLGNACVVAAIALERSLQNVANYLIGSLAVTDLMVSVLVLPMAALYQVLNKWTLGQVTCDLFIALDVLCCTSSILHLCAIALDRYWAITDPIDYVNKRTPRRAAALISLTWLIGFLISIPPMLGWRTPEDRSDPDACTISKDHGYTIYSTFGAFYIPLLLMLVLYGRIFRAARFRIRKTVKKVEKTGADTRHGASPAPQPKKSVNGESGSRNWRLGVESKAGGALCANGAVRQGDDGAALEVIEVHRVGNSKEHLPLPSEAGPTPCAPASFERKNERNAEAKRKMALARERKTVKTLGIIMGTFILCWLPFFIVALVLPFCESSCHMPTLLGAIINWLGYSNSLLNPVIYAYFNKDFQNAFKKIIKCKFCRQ
Experimental: Genomic clone G-21 encoding the human 5HT1A-serotonergic receptor was stably transfected in a human cell line (HeLa). HeLa cells were grown as monolayers in Dulbecco's modified Eagle medium (DMEM), containing 10% fetal bovine serum and gentamycin (100 μg/ml) at 37° C. in a humidified atmosphere of 5% CO2 and air. The cells were detached from the growth flask at 95% confluence by a cell scraper and were lysed in cold 5 mM Tris and 5 mM EDTA buffer (pH 7.4). The homogenates were centrifuged at 40000×g×20 minutes and the pellets were resuspended in a small volume of cold 5 mM Tris and 5 mM EDTA buffer (pH 7.4) and immediately frozen and stored at −70° C. until use. On the day of experiment, the cell membranes were resuspended in incubation buffer: 50 mM Tris (pH 7.4), 2.5 mM MgCl2, 10 μM pargyline (Fargin et al., Nature 335, 358-360, 1988). The membranes were incubated in a final volume of 0.32 ml for 30 minutes at 30° C. with 1 nM [^3H]8-OH-DPAT, in the absence or presence of the test compounds. Non-specific binding was determined in the presence of 10 μM 5-HT. Incubation was stopped by addition of cold Tris buffer and rapid filtration through UniFilter GF/C plate.
The affinity of the tested compounds was evaluated as inhibition of specific binding of the radioligand to 5-HT1A receptor (IC50) by using the non-linear curve-fitting program Allfit (De Lean et al., Am. J. Physiol. 235, E97-E102 (1978)). The IC50 value was converted to an affinity constant (Ki) by the equation of Cheng et al., Biochem. Pharmacol. 22, 3099-3108 (1973).

[2] = biological target: T2, human cloned 5-HT1A receptors (Homo sapiens, UniProt P08908); assay: [35S]GTPγS binding, functional activity; format: biochemical; design: key: neutral antagonists (NA); inverse agonists (IA); conditions: HeLa membranes with human 5-HT1A
T2 construct: expressed in transfected cells; host or cells: HeLa (human), stably transfected; membranes
T2 sequence (P08908 1-422): T1 sequence (P08908 1-422)
Experimental: On the date of the experiment, cell membranes from HeLa cells transfected with human cloned 5-HT1A receptors were resuspended in buffer pH 7.4 containing 20 mM HEPES, 3 mM MgCl2 and 120 mM NaCl (Stanton, J. A.; Beer, M. S. Eur. J. Pharmacol. 320, 267-275, 1997). The membranes were incubated with 10 μM GDP and decreasing concentrations of test drugs (from 100 μM to 0.1 nM) or decreasing concentrations of 5-HT (from 100 μM to 0.1 nM, reference curve) for 20 min at 30° C. in a final volume of about 0.25 ml. [^35S]GTPγS (200-250 pM in 10 μl) was added to samples and incubated for a further 30 min at 30° C. Non-specific binding was determined in the presence of 10 μM GTPγS. The incubation was stopped by addition of ice-cold HEPES buffer and rapid filtration on Unifilter GF/C filters, using a Filtermate cell harvester (Packard). The filters were washed four times with total 1.2 ml of same buffer. Radioactivity was counted by liquid scintillation spectrometry with efficiency >90% (TopCount Packard). Stimulation of [^35S]GTPγS binding induced by the compounds tested was expressed as % increase in binding above basal value, being the maximal stimulation observed with 5-HT taken as 100%. The concentration-response curve of the agonistic activity was analyzed by non linear fitting program (De Lean et al., Am. J. Physiol. 235, E97-E102, 1978).
A stimulation of [^35S]GTPγS binding represented the functional correlate of the binding of an agonist compound at the 5-HT1A receptors. Stimulation induced by the endogenous ligand 5-HT was considered the maximal stimulation attainable. Compounds stimulating [^35S]GTPγS binding at a lower level were considered as partial agonists. […] Compounds that reduced [^35S]GTPγS binding were considered as inverse agonists.

5-HT1A receptors = biological target: T3, 5-HT1A receptors (Rattus norvegicus, UniProt P19327); assay: Inhibition of serotonergic syndrome (forepaw treading) induced by 8-OH-DPAT in rats (post-synaptic antagonism); format: in vivo; conditions: rat, 10 mg/kg p.o.
T3 construct: from tissue; host or cells: living male Sprague-Dawley rats (whole animal, behavioural read-out)
T3 sequence (P19327 1-422): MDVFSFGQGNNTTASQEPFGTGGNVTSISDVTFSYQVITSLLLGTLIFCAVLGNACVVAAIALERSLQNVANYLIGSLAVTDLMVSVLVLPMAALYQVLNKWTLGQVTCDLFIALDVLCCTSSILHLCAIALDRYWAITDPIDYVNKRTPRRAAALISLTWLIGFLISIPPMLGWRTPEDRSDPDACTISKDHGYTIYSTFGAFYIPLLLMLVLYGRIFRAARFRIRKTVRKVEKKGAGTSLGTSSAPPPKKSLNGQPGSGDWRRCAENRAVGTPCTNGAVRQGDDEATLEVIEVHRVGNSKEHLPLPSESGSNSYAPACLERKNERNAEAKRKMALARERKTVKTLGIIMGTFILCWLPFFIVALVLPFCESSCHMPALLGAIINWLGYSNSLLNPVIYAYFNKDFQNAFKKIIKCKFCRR
Experimental: The inhibitory effect of 5-HT1A-receptor antagonists on stereotyped forepaw treading induced in rats by subcutaneous injection of 8-OH-DPAT was evaluated by the method of Tricklebank (Tricklebank et al., Eur. J. Pharmacol., 117: 15, 1985) with minor modifications as described below.
Male Sprague-Dawley rats [Crl: CD® (SD) IGS BR] weighing 150-175 g from Charles River Italia were used. The animals were housed with free access to food and water and maintained on a forced 12-hour-light/12-hour-dark cycle at 22-24° C. of temperature. On the day of the experiment, the rats were placed singly in clear plastic containers, 10-15 minutes before oral administration of the vehicle or compounds to be tested. For evaluation of antagonistic activity, the compounds were administered 1 and 4 hours before induction of stereotypy by 8-OH-DPAT (1 mg/kg subcutaneously). Observation sessions lasted 30 seconds and began 3 minutes after 8-OH-DPAT treatment and were repeated every 3 minutes over a period of 15 minutes.
The appearance of the symptoms induced by postsynaptic stimulation of 5-HT1A receptors was noted, and the intensity was scored using an intensity scale in which: 0=absent, 1=equivocal, 2=present and 3=intense. Behavioural scores for treated rats were accumulated throughout the observation time (5 observation periods) and expressed as mean values of 4 rats/dose. Change in mean values of treated animals in comparison with control (vehicle) group, expressed as per-cent inhibition, was used to quantify the antagonistic activity.
In order to quantitate the potency of the compound of Example 24 in inhibiting the stereotypy (forepaw treading) induced by 8-OH-DPAT, an ED50 value (dose inhibiting by 50% the forepaw treading) was evaluated by means of linear regression using the least square method.

[3] = test system: rhythmic bladder-voiding contractions; assay: Rhythmic bladder-voiding contractions induced by bladder filling in anaesthetised rats; format: in vivo, rat; conditions: intravenous administration
Experimental: Female Sprague-Dawley rats weighing 225-275 g (Crl: CD® (SD) IGS BR, Charles River Italia) were used. The animals were housed with free access to food and water and maintained on a forced 12-hour alternating light-dark cycle at 22-24° C. for at least one week, except during the experiment. The activity on rhythmic bladder voiding contractions was evaluated according to the method of Dray (Dray J., Pharmacol. Methods, 13:157, 1985), with some modifications as in Guarneri (Guarneri, Pharmacol. Res. 27:173, 1993). Briefly, the rats were anaesthetised by subcutaneous injection of 1.25 g/kg (5 ml/kg) urethane, after which the urinary bladder was catheterised via the urethra using PE 50 polyethylene tubing filled with physiological saline. The catheter was tied in place with a ligature around the external urethral orifice and was connected to conventional pressure transducers (Statham P23 ID/P23 XL). […] The bladder was then filled via the recording catheter by incremental volumes of warm (37° C.) saline until reflex bladder-voiding contractions occurred (usually 0.8-1.5 ml). For intravenous injection of bioactive compounds, PE 50 polyethylene tubing filled with physiological saline was inserted into the jugular vein.
From the cystometrogram, the number of contractions recorded 15 minutes before (basal values) and after treatment, as well as the mean amplitude of these contractions (mean height of the peaks in mmHg), was evaluated.
Since most compounds produced an effect that was relatively rapid in onset and led to a complete cessation of bladder contractions, bioactivity was conveniently estimated by measuring the duration of bladder quiescence (i.e., the time during which no contractions occurred). The number of tested animals showing a reduction in the number of contractions higher than 30% of that observed in the basal period was recorded too.
The extrapolated doses which induced a reduction in the number of contractions greater than 30% in 50% of the treated rats (ED50) were also evaluated by the method of Bliss (Bliss C. I., Quart J. Pharm. Pharmacol. 11, 192-216, 1938).

[4] = 1 h before 8-OH-DPAT 1 mg/kg s.c., read-out: % Inhibition of forepaw treading, 1 h
[5] = 4 h before 8-OH-DPAT 1 mg/kg s.c., read-out: % Inhibition of forepaw treading, 4 h

| Ki [1] | Functional Activity [2] | inhibition at 10 mg/kg (5-HT1A receptors; [4]) | inhibition at 10 mg/kg (5-HT1A receptors; [5]) | SMILES | ED50 ([3]; Rattus norvegicus, read-out: ED50 (frequency) (extrapolated dose inducing a reduction of the number of contractions >30% in 50% of treated rats)) | ED10 min (extrapolated dose inducing 10 minutes of disappearance of the contractions) [3] |
| --- | --- | --- | --- | --- | --- | --- |
| 0.68 nM | IA |  |  | CON[C@H](C1CCCCC1)[C@@H](CCN1CCN(c2ccccc2OC)CC1)c1ccccc1F (racemic) [Example 4a, (RS,SR)-N-{1-Cyclohexyl-2-(2-fluorophenyl)-4-[4-(2-methoxyphenyl)piperazin-1-yl]butyl}-O-methylhydroxylamine] |  |  |
| 1.69 nM | IA | 87% | 86% | COc1ccccc1N1CCN(CC[C@@H](c2ccccc2F)[C@H](NC(C)=O)C2CCCCC2)CC1 (racemic) [Example 7, N-{(RS,SR)-1-Cyclohexyl-2-(2-fluorophenyl)-4-[4-(2-methoxyphenyl)-piperazin-1-yl]butyl}acetamide] |  |  |
| 0.68 nM | IA |  |  | COc1ccccc1N1CCN(CC[C@@H](c2ccccc2F)[C@@H](C2CCCCC2)N(C(C)=O)C(C)=O)CC1 (racemic) [Example 8, N-Acetyl-N-{(RS,SR)-1-cyclohexyl-2-(2-fluorophenyl)-4-[4-(2-methoxyphenyl)piperazin-1-yl]butyl}acetamide] |  |  |
| 0.68 nM | IA | 75% | 92% | COC(=O)N[C@H](C1CCCCC1)[C@@H](CCN1CCN(c2ccccc2OC)CC1)c1ccccc1F (racemic) [Example 17, (RS,SR)-{1-Cyclohexyl-2-(2-fluorophenyl)-4-[4-(2-methoxyphenyl)-piperazin-1-yl]butyl}carbamic acid methyl ester] |  |  |
| 1.7 nM | IA |  |  | COc1ccccc1N1CCN(CC[C@@H](c2ccccc2F)[C@@H](C2CCCCC2)N(C)C(=S)N(C)C)CC1 (racemic) [Example 53, 1-{(RS,SR)-1-Cyclohexyl-2-(2-fluorophenyl)-4-[4-(2-methoxyphenyl)piperazin-1-yl]butyl}-1,3,3-trimethylthiourea] |  |  |
| 0.7 nM | IA |  |  | COc1ccccc1N1CCN(CC[C@@H](c2ccccc2F)[C@H](NC(=S)N(C)C)C2CCCCC2)CC1 (single isomer, unassigned) [Example 24A, 3-{(1R,2S) or (1S,2R)-1-Cyclohexyl-2-(2-fluorophenyl)-4-[4-(2-methoxyphenyl)piperazin-1-yl]butyl}-1,1-dimethylthiourea] |  |  |
| 0.3 nM | IA |  |  | COc1ccccc1N1CCN(CCC(c2ccccc2F)C(NCc2ccccc2)C2CCCCC2)CC1 (stereo not drawn) [Example 13, (RS,SR)- and (RS,RS)-N-Benzyl-{1-cyclohexyl-2-(2-fluorophenyl)-4-[4-(2-methoxyphenyl)piperazin-1-yl]butyl}amine] |  |  |
| 0.9 nM | IA |  |  | CC(=O)N(C)C(C1CCCCC1)C(CCN1CCN(c2cccc3c2OCCO3)CC1)c1ccccc1F (stereo not shown) [Example 41, N-[1-Cyclohexyl-4-[4-(2,3-dihydrobenzo[1,4]dioxin-5-yl)piperazin-1-yl]-2-(2-fluoro-phenyl)butyl]-N-methylacetamide] |  |  |
|  |  |  |  | Cc1c(-c2ccccc2)oc2c(C(=O)OCCN3CCCCC3)cccc2c1=O [Flavoxate, flavoxate] | 2.65 mg/kg | >10 mg/kg |
